Experimental data: the supplement of paper PMC10307832

How the values were obtained:
Test in all cases: relative viability (nuclei count vs DMSO), 5 days (fraction); higher = more cells survive
[1] = compound: CS(=O)(=O)c1ccc(C(=O)Nc2ccc(Cl)c(-c3ccccn3)c2)c(Cl)c1 [Vismodegib] + Cc1nc(Nc2ncc(C(=O)Nc3c(C)cccc3Cl)s2)cc(N2CCN(CCO)CC2)n1 [Dasatinib] (partner 0.075 µM)
Summary of the method: (§1)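 Nuclei were stained with Hoechst during a one-step fixation (final 0.05% Triton X-100, 1% formaldehyde, 1 ug/ml Hoechst) carried out 5 days after dosing, then counted on 4× images. The cells, lung cancer lines in 1536-well plates, had been dosed by pin tool the day after seeding with one drug alone or a fixed anchor-drug dose plus five library-drug doses (not always all listed) in √10 steps. Relative viability is the nuclei count in treated wells divided by that in vehicle wells, and each value is the median of duplicate plates.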

[2] = compound: N#CC[C@H](C1CCCC1)n1cc(-c2ncnc3[nH]ccc23)cn1 [Ruxolitinib] + CS(=O)(=O)CCNCc1ccc(-c2ccc3ncnc(Nc4ccc(OCc5cccc(F)c5)c(Cl)c4)c3c2)o1 [Lapatinib] (partner 2 µM)
Summary of the method: as §1

[3] = compound: CS(=O)(=O)c1ccc(-c2cnc(N)c(C(=O)Nc3ccccc3)n2)cc1 [VE-821] + Cc1nc(Nc2ncc(C(=O)Nc3c(C)cccc3Cl)s2)cc(N2CCN(CCO)CC2)n1 [Dasatinib] (partner 0.075 µM)
Summary of the method: as §1

[4] = compound: N#CC[C@H](C1CCCC1)n1cc(-c2ncnc3[nH]ccc23)cn1 [Ruxolitinib] + N=C(N)NC(=N)NCCc1ccccc1 [Phenformin] (partner 250 µM)
Summary of the method: as §1

Cell Line	relative viability ([1]; first compound 0.08 µM)	relative viability ([1]; first compound 0.253 µM)	relative viability ([1]; first compound 0.8 µM)	relative viability ([1]; first compound 2.53 µM)	relative viability ([1]; first compound 8 µM)	relative viability ([2]; first compound 0.08 µM)	relative viability ([2]; first compound 0.253 µM)	relative viability ([2]; first compound 0.8 µM)	relative viability ([2]; first compound 2.53 µM)	relative viability ([2]; first compound 8 µM)	relative viability ([3]; first compound 0.08 µM)	relative viability ([3]; first compound 0.253 µM)	relative viability ([3]; first compound 0.8 µM)	relative viability ([3]; first compound 2.53 µM)	relative viability ([3]; first compound 8 µM)	relative viability ([4]; first compound 0.08 µM)	relative viability ([4]; first compound 0.253 µM)	relative viability ([4]; first compound 0.8 µM)	relative viability ([4]; first compound 2.53 µM)	relative viability ([4]; first compound 8 µM)
NCI-H1666	0.73	0.777	0.816	0.841	0.734	0.584	0.629	0.738	0.844	0.656	0.841	0.78	0.816	0.695	0.578	0.606	0.538	0.519	0.564	0.512
EPLC-272H	0.362	0.367	0.397	0.327	0.312	0.164	1.08	0.953	1	0.671	0.341	0.325	0.418	0.41	0.219	0.297	0.323	0.306	0.278	0.269
NCI-H838	0.213	0.275	0.303	0.285	0.319	1	0.803	0.873	0.446	0.406	0.301	0.259		0.288	0.24	0.602	0.54	0.465	0.266	0.263
NCI-H2087	0.98	0.769	0.812	0.94	0.69	1.05	1.1	1.16	0.786	1.04	0.871	0.814	0.912	1.2	0.786	0.531	0.388	0.523	0.409	0.382
LC-2-ad	0.677	0.568	0.467	0.482	0.557	0.989	0.878	0.868	0.773	0.34	0.856	0.607	0.679	0.586	0.404		0.515	0.561	0.553	0.456
NCI-H2405	0.214	0.228	0.212	0.235	0.239		1	1.23	0.879	0.643	0.178	0.211	0.202	0.203	0.205		0.36	0.404	0.308	0.312
HCC-366	0.816	0.587	0.622	0.693	0.692	1.11	0.982	1.1	0.937	0.747	0.67	0.633	0.516	0.255	0.0491	0.584	0.654	0.667	0.542	0.472
NCI-H3122	0.871	0.823	0.811	0.862	0.867	0.928	1.04	0.98	0.848	0.934	0.946	0.726	0.83	0.874	0.694		0.429	0.378	0.327	0.318
LU99A	0.401	0.507	0.546	0.509	0.708	1.11	0.954	1.13	0.754	0.675	0.552	0.562	0.551	0.571	0.303	1.06	0.931	0.801	0.782	0.755
NCI-H1650	0.276	0.347	0.339	0.258	0.291		0.826	1.05	0.761	0.89	0.312	0.322	0.28	0.255	0.211		0.315	0.455	0.388	0.331
EMC-BAC-2	0.334	0.365	0.285	0.353	0.317	0.945	0.786	0.974	0.901	0.713	0.349	0.316	0.346	0.342	0.275	0.534	0.471	0.555	0.44	0.353
HCC-78	0.32	0.33	0.363	0.475	0.351	0.37	0.294	0.441	0.553	0.199	0.453	0.281	0.376	0.432	0.33	0.756	0.563	0.788	0.662	0.729
NCI-H1734	0.44	0.498	0.482	0.446	0.537	1.09	1	1.21	0.87	0.936	0.51	0.455	0.479	0.425	0.33	0.382	0.342	0.472	0.36	0.432
COR-L23	0.507	0.455	0.543	0.452	0.533	1	0.9	1.16	0.744	0.823	0.678	0.48	0.545	0.536	0.395	0.457	0.407	0.45	0.439	0.354
RERF-LC-KJ	0.779	0.676	0.75	0.758	0.768	0.926	0.859	0.898	0.909	0.855	0.924	0.651	0.582	0.69	0.582	0.349	0.418	0.426	0.42	0.332
NCI-H1437	0.313	0.372	0.402	0.328	0.377	0.976	0.883	0.926	0.695	0.57	0.479	0.357	0.386	0.498	0.302	0.341	0.287	0.29	0.275	0.271
NCI-H1915	0.346	0.296	0.295	0.266	0.326	0.973	1	0.927	0.999	0.798	0.335	0.295	0.345	0.33	0.332	0.375	0.41	0.384	0.358	0.343
SK-MES-1	0.401	0.313	0.407	0.413	0.429	0.493	0.412	0.448	0.474	0.42	0.389	0.379	0.274	0.332	0.199	0.708	0.641	0.663	0.593	0.495
NCI-H522	0.915	0.888	0.883	0.793	0.879						0.77	0.918	0.704	0.902	0.825	0.663	0.644	0.728	0.575	0.617
NCI-H1299						0.937	0.963	0.957	0.915	0.718										

Cell Line	relative viability ([1]; first compound 0.08 µM)	relative viability ([1]; first compound 0.253 µM)	relative viability ([1]; first compound 0.8 µM)	relative viability ([1]; first compound 2.53 µM)	relative viability ([1]; first compound 8 µM)	relative viability ([2]; first compound 0.08 µM)	relative viability ([2]; first compound 0.253 µM)	relative viability ([2]; first compound 0.8 µM)	relative viability ([2]; first compound 2.53 µM)	relative viability ([2]; first compound 8 µM)	relative viability ([3]; first compound 0.08 µM)	relative viability ([3]; first compound 0.253 µM)	relative viability ([3]; first compound 0.8 µM)	relative viability ([3]; first compound 2.53 µM)	relative viability ([3]; first compound 8 µM)	relative viability ([4]; first compound 0.08 µM)	relative viability ([4]; first compound 0.253 µM)	relative viability ([4]; first compound 0.8 µM)	relative viability ([4]; first compound 2.53 µM)	relative viability ([4]; first compound 8 µM)
NCI-H1651	0.434	0.446	0.388	0.349	0.591	0.958	0.92	0.884	0.767	0.903	0.471	0.46	0.424	0.437	0.323	0.313	0.275	0.351	0.3	0.354
NCI-H661	0.807	0.815	0.897	0.892	0.856	0.518	0.564	0.614	0.452	0.606	0.934	0.668	0.884	0.865	0.434	0.287	0.256	0.303	0.29	0.263
NCI-H1944	0.228	0.213	0.201	0.242	0.204	0.823	0.903	0.798	0.729	0.815	0.22	0.213	0.185	0.27	0.228	0.201	0.202	0.215	0.164	0.151
NCI-H2228	0.593	0.529	0.46	0.452	0.454	0.972	1.17	1.22	0.82	0.664	0.602	0.457	0.621	0.528	0.31	0.323	0.299	0.311	0.264	0.273
NCI-H1792	0.697	0.726	0.673	0.505	0.655	0.936	0.831	0.846	0.845	0.824	0.981	0.89	0.731	0.851	0.727	0.253	0.241	0.261	0.146	0.128
HCC-44						1.06	1.07	1.04	1.01	0.783						0.103	0.143	0.228	0.168	0.216
NCI-H358	0.149	0.183	0.193	0.172	0.161	0.421	0.434	0.445	0.36	0.35	0.157	0.156	0.183	0.209	0.213	0.291	0.271	0.319	0.189	0.26
NCI-H596	0.568	0.566	0.585	0.625	0.556	1.18	1.07	1.22	1.03	1.07	0.545	0.653	0.643	0.679	0.615	0.975	0.793	0.801	0.706	0.836
EBC-1						0.21		0.216	0.232	0.195										
ChaGo-K-1	0.718	0.672	0.622	0.583	0.632						0.553	0.525	0.582	0.62	0.418	0.45	0.401	0.414	0.449	0.446
NCI-H2342	0.313	0.316	0.298	0.344	0.322						0.331	0.329	0.311	0.324	0.293	0.55	0.484	0.662	0.55	0.613
Calu-6						1.09	1.09	1.17	1	0.647										
NCI-H1703						0.999	1.01	1.12	0.738	0.64										
LCLC-103H	0.579	0.517	0.471	0.4	0.458						0.418	0.525	0.31	0.474	0.513	0.349	0.326	0.298	0.337	0.286
NCI-H1623	0.48	0.565	0.557	0.51	0.462						0.565	0.53	0.518	0.525	0.606	0.525	0.608	0.574	0.637	0.343
NCI-H441	0.671	0.444	0.502	0.558	0.433						0.641	0.558	0.706	0.687	0.539	0.769	0.743	1.13	0.688	0.651
IA-LM						0.903	0.657	1.04	1.01	0.477										
SW 900	0.669	0.543	0.585	0.763	0.536						0.7	0.545	0.397	0.658	0.37	0.532	0.624	0.702	0.543	0.457
A549						0.998	1.03	1.04	0.918	0.636						0.0714	0.144	0.198	0.127	0.15
